Measured values published in US20230021483A1, “[…] […] METHOD AND CLASSIFICATION OF PHARMACEUTICAL COMPONENTS BY USING TRANSCRIPTOMES” (National Institutes of Biomedical Innovation, Health and …, priority 2016, published 2023).
Where “and” joins values, the source holds several entries; their conditions need not be identical. Identical values can stand only once.

Experiments:
Format in all cases: in vivo, C57BL/6 mice
[1] = tested on: inguinal lymph nodes (LN); test: Whole organ transcriptome (GeneChip microarray) of draining inguinal lymph nodes 6 h after adjuvant administration: sDEGs, gene modules, hierarchical clustering; settings: lymph node; for adjuvant group (cluster) in LN: key: G1 (interferon signaling); G2 (metabolism of lipids and lipoproteins); G3 (response to stress); G4 (response to wounding); G5 (phosphate-containing compound metabolic process); G6 (phagosome)
[2] = tested on: preferentially upregulated genes in LV, SP, LN; test: Z-score-based differential gene expression analysis (adjuvant group- or adjuvant-associated genes, 40 module mapping, TargetMine annotation)
Procedure, shortened: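 Gene groups for each organ were built from combined z-score cutoffs across adjuvants, ranging from z>1 to z>3. Scores came from fold changes standardized per gene over the whole organ data set, with the three replicate z-scores added per adjuvant; sums above 3 marked preferential expression.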

[3] = tested on: LV, SP and LNs; test: Whole organ transcriptome across organs (adjuvant gene space): gene responses and adjuvant grouping
[4] = ID, LN, samples x1-x3, Module#(LN) 40
[5] = liver (LV), gene group G1, module 20, individual mice x1-x3, route ID/IP/IN

Substance: D35: A class CpG ODN (5′-GGTGCATCGATGCAGGGGGG-3′), TLR9 ligand (DNA GGTGCATCGATGCAGGGGGG; chemistry not given here)
- adjuvant group (cluster) in LN ([1]; hierarchical clustering): G5
- Number of gene probes with statistically significant changes (sDEGs), LN, Down ([1]; i.d. administration, fold change <0.667, p<0.01, customized PA call=1, 6 h after adjuvant): 12
- Number of gene probes with statistically significant changes (sDEGs), LN, Up ([1]; i.d. administration, fold change >1.5, p<0.01, customized PA call=1, 6 h after adjuvant): 69
- z sum, 1444615_x_at Runx1t1 ([2]; ID, LN, Module#(LN) 1): 3.519
- z sum, 1420894_at Tgfbr1 ([2]; ID, LN, Module#(LN) 3): 3.333
- z sum, 1460069_at Smc6 ([2]; ID, LN, Module#(LN) 7): 3.274
- z sum, 1440371_at --- ([2]; ID, LN, Module#(LN) 8): 3.29
- z sum, 1456346_at --- ([2]; ID, LN, Module#(LN) 9): 3.455
- z sum, 1425105_at Rbp3 ([2]; ID, LN, Module#(LN) 10): 3.333
- z sum, 1455796_x_at Olfm1 ([2]; ID, LN, Module#(LN) 11): 3.262
- z sum, 1443302_at --- ([2]; ID, LN, Module#(LN) 12): 3.407
- z sum, 1442518_at C030044O21Rik ([2]; ID, LN, Module#(LN) 14): 3.546
- z sum, 1419486_at Foxc1 ([2]; ID, LN, Module#(LN) 19): 3.344
- z sum, 1441344_at Erlin1 ([2]; ID, LN, Module#(LN) 21): 3.171
- z sum, 1423611_at Alpl ([2]; ID, LN, Module#(LN) 24): 3.194
- z sum, 1448179_at Usmg5 ([2]; ID, LN, Module#(LN) 24): 3.461
- z sum, 1458457_at --- ([2]; ID, LN, Module#(LN) 26): 3.147
- z sum, 1450377_at Thbs1 ([2]; ID, LN, Module#(LN) 28): 3.002
- z sum, 1443853_x_at Sfmbt1 ([2]; ID, LN, Module#(LN) 32): 3.51
- z sum, 1443392_at Trpv1 ([2]; ID, LN, Module#(LN) 33): 3.184
- z sum, 1440475_at AW011738 ([2]; ID, LN, Module#(LN) 36): 3.038
- z sum, 1416380_at Mov10 ([2]; ID, LN, Module#(LN) 37): 3.277
- z sum, 1421008_at Rsad2 ([2]; ID, LN, Module#(LN) 37): 3.221
- z sum, 1421009_at Rsad2 ([2]; ID, LN, Module#(LN) 37): 3.209
- z sum, 1424339_at Oasl1 ([2]; ID, LN, Module#(LN) 37): 3.198
- z sum, 1426013_s_at Plekha4 ([2]; ID, LN, Module#(LN) 37): 3.228
- z sum, 1436058_at Rsad2 ([2]; ID, LN, Module#(LN) 37): 3.281
- z sum, 1436472_at Slfn9 ([2]; ID, LN, Module#(LN) 37): 3.595
- z sum, 1447241_at --- ([2]; ID, LN, Module#(LN) 37): 3.033
- z sum, 1416039_x_at Cyr61 ([2]; ID, LN, Module#(LN) 39): 3.015
- z sum, 1418191_at Usp18 ([2]; ID, LN, Module#(LN) 40): 3.035
- z sum, 1418293_at Ifit2 ([2]; ID, LN, Module#(LN) 40): 3.02
- z sum, 1418580_at Rtp4 ([2]; ID, LN, Module#(LN) 40): 3.028
- z sum, 1419603_at Ifi204 ([2]; ID, LN, Module#(LN) 40): 3.659
- z sum, 1421911_at Stat2 ([2]; ID, LN, Module#(LN) 40): 3.137
- z sum, 1422006_at Eif2ak2 ([2]; ID, LN, Module#(LN) 40): 3.279
- z sum, 1422141_s_at Csprs///Gm15433///Gm2666///Gm7609///LOC100041903///LOC100503923 ([2]; ID, LN, Module#(LN) 40): 3.074
- z sum, 1423555_a_at Ifi44 ([2]; ID, LN, Module#(LN) 40): 3.551
- z sum, 1424444_a_at 1600014C10Rik ([2]; ID, LN, Module#(LN) 40): 3.108
- z sum, 1424607_a_at Gm4354 ([2]; ID, LN, Module#(LN) 40): 3.422
- z sum, 1424609_a_at Cwc22///Gm4354///Xdh ([2]; ID, LN, Module#(LN) 40): 3.429
- z sum, 1431095_a_at Herc6 ([2]; ID, LN, Module#(LN) 40): 3.065
- z sum, 1432417_a_at Tspan2 ([2]; ID, LN, Module#(LN) 40): 3.906
- z sum, 1439886_at --- ([2]; ID, LN, Module#(LN) 40): 3.151
- z sum, 1450403_at Stat2 ([2]; ID, LN, Module#(LN) 40): 3.389
- z sum, 1451777_at Ddx60 ([2]; ID, LN, Module#(LN) 40): 3.02
- z sum, 1452349_x_at Ifi205///Mnda ([2]; ID, LN, Module#(LN) 40): 3.123
- z sum, 1453196_a_at Oasl2 ([2]; ID, LN, Module#(LN) 40): 3.123
- z sum, 1453299_a_at Pnp///Pnp2 ([2]; ID, LN, Module#(LN) 40): 3.12
- z sum, 1453757_at Herc6 ([2]; ID, LN, Module#(LN) 40): 3.183
- z sum, 1456164_at AW011738 ([2]; ID, LN, Module#(LN) 40): 3.347
- z sum, 1457035_at Al607873 ([2]; ID, LN, Module#(LN) 40): 3.377
- z-score of fold change, 1460069_at Smc6 ([2]; ID, LN, samples x1-x3, Module#(LN) 7): 0.716 and 1.173 and 1.385
- z-score of fold change, 1442518_at C030044O21Rik ([2]; ID, LN, samples x1-x3, Module#(LN) 14): 0.953 and 1.161 and 1.432
- z-score of fold change, 1423611_at Alpl ([2]; ID, LN, samples x1-x3, Module#(LN) 24): 0.707 and 1.244
- z-score of fold change, 1436472_at Slfn9 ([2]; ID, LN, samples x1-x3, Module#(LN) 37): 1.143 and 1.047 and 1.405
- z-score of fold change, 1419603_at Ifi204 [2, 4]: 1.185 and 1.269 and 1.205
- z-score of fold change, 1422006_at Eif2ak2 [2, 4]: 1.174 and 1.037 and 1.068
- z-score of fold change, 1424607_a_at Gm4354 [2, 4]: 1.005 and 1.314 and 1.103
- z-score of fold change, 1424609_a_at Cwc22///Gm4354///Xdh [2, 4]: 1.178 and 1.294 and 0.958
- z-score of fold change, 1432417_a_at Tspan2 [2, 4]: 1.133 and 1.404 and 1.369
- z-score of fold change, 1451777_at Ddx60 [2, 4]: 0.83 and 1.215 and 0.975
- z-score of fold change, 1457035_at Al607873 [2, 4]: 0.908 and 1.231 and 1.239
- interferon induction relative to adjuvants targeting the same receptor ([2]; LN, z-scores and 40 module mapping): relatively stronger interferon inducer than K3 or K3SPG
- Z score of gene expression, Adar (probe 1425405_a_at) [2, 5]: −0.1 and −0.3 (2×)
- Z score of gene expression, Adar (probe 1434268_at) [2, 5]: −0.3 (2×) and −0.4
- Z score of gene expression, Ddx58 (probe 1436562_at) [2, 5]: −0.4 (2×) and −0.1
- Z score of gene expression, Ddx58 (probe 1456890_at) [2, 5]: −0.3 (2×) and −0.4
- Z score of gene expression, Eif2ak2 (probe 1422005_at) [2, 5]: −0.5 and −0.4 (2×)
- Z score of gene expression, G3bp2 (probe 1421323_a_at) [2, 5]: −0.5 and −0.4 (2×)
- Z score of gene expression, Gm9706///Isg15 (probe 1431591_s_at) [2, 5]: −0.5
- Z score of gene expression, H2-T10///H2-T22///H2-T9 (probe 1449875_s_at) [2, 5]: −0.4 and −0.3 and −0.2
- Z score of gene expression, Ifih1 (probe 1426276_at) [2, 5]: −0.5 (2×) and −0.3
- Z score of gene expression, Ifit1 (probe 1449025_at) [2, 5]: −0.5
- Z score of gene expression, Ifit1 (probe 1450783_at) [2, 5]: −0.5 and −0.4 (2×)
- Z score of gene expression, Irf7 (probe 1417244_a_at) [2, 5]: −0.3 (2×) and −0.2
- Z score of gene expression, Irgm1 (probe 1418825_at) [2, 5]: −0.5 (2×) and −0.3
- Z score of gene expression, Mndal (probe 1426906_at) [2, 5]: −0.5 and −0.4 and −0.3
- Z score of gene expression, Pml (probe 1448757_at) [2, 5]: −0.7 and −0.4 and −0.3
- Z score of gene expression, Pml (probe 1456103_at) [2, 5]: −0.4 and −0.3 (2×)
- Z score of gene expression, Rnf213 (probe 1455500_at) [2, 5]: −0.4
- Z score of gene expression, Rsad2 (probe 1436058_at) [2, 5]: −0.5
- Z score of gene expression, Shisa5 (probe 1423986_a_at) [2, 5]: −0.5 and −0.6 and −0
- Z score of gene expression, Shisa5 (probe 1437503_a_at) [2, 5]: −0.4 (2×) and 0.15
- Z score of gene expression, Stat1 (probe 1450033_a_at) [2, 5]: −0.5 (2×) and −0.4
- Z score of gene expression, Stat1 (probe 1450034_at) [2, 5]: −0.5
- Z score of gene expression, Tdrd7 (probe 1426716_at) [2, 5]: −0.4 (2×) and −0.1
- Z score of gene expression, Tor1aip2 (probe 1418115_s_at) [2, 5]: −0.4 and −0.6 and −0.1
- Z score of gene expression, Tor1aip2 (probe 1418116_at) [2, 5]: −0.4 and −0.5 and −0.2
- Z score of gene expression, Tor1aip2 (probe 1435526_at) [2, 5]: −0.4 (2×) and −0.5
- Z score of gene expression, Trim12a (probe 1437432_a_at) [2, 5]: −0.4 (2×) and −0.5
- Z score of gene expression, Uba7 (probe 1426970_a_at) [2, 5]: −0.8 and −0.6 and −0.5
- distribution/strength of gene responses between local LNs and systemic organs (LV, SP) ([3]; 6 h after i.d. (local) administration): acted on local LNs but not in the systemic remote organs
- adjuvant group (cluster) within the adjuvant gene space ([3]; hierarchical clustering, LV, SP and/or LNs): G5
